# Counter-ions that a name gives are not always drawn.
# Columns and labels:
# [1] = tested on: apomorphine induced hypomotility in rats; assay: Apomorphine induced hypomotility in rats (video tracking); format: in vivo, Sprague-Dawley rats
# Protocol: FIG. 7. […] Test drugs were administered 30 minutes prior to registration. Motor activity was measured for 30 minutes as velocity in the video tracking setting. Statistical comparisons were made versus the apomorphine group with univariate general linear model, followed by Dunnet's post hoc test. *p<0.05; *p<0.01; ***p<0.001. FIG. 8.
# (§1) The rats were housed in reverse daylight cycle and all handling of the animals was performed in dim light. Apomorphine was administered s.c. 5 minutes prior to testing, while all other drugs were injected i.p. or s.c. 30 minutes before testing. Single rats were introduced into rectangular arenas (l/w/h: 150×100×40 cm) illuminated indirectly by one infrared lamp (Neocom, South Korea). The rats' movements were recorded to digital (MPEG2) video files using an IR sensitive video camera (Panasonic WV-CPR480, lens: Panasonic LA-408C3) connected to a PC equipped with a MPEG-encoder (MVR1000^SX, Canopus Co.). […] Behavioural variables were extracted from the tracks in MatLab (The MathWorks, Inc., USA) with functions developed in this laboratory. Mean velocity was used to measure motor activity. Prior to calculation of velocity the tracks were subjected to a running mean filter, i.e. each sample was replaced by the mean of fifteen consecutive samples.
# (§2) In several cases data from two or more experiments have been pooled. […] Confirmed outlying values (N=0-3 per experiment) were excluded from statistical analyses and graphical presentations. Data from the video tracking setting was analyzed with univariate general linear model (GLM). Following GLM analysis, comparisons versus the appropriate control groups were performed with Dunnet's post hoc test. […] Data obtained from activity boxes was analyzed with Kruskal-Wallis one-way analysis of variance by ranks. […] All statistical tests were two sided and p<0.05 was considered statistically significant.
# active rats = assay: Video tracking: motor activity (velocity) of active rats; format: in vivo, Sprague-Dawley rats
# Protocol: (§3) Prior to testing, the rats were housed for approximately 1 week with free access to food and water, in groups of four or five in Macrolon type III cages in the animal facility of the Sahlgrenska Academy at Göteborg University. The experiments were approved by the animal ethics committee in Göteborg.
# (§4) OSU6162, ACR16, apomorphine and (−)-3-PPP were dissolved in 0.9% saline. A few grains of ascorbic acid were added to apomorphine solutions to prevent oxidation of the drug. Haloperidol and amisulpride were dissolved in a minimum amount of acetic acid and diluted with 5.5% glucose. The solutions were adjusted to pH 5-7 with sodium bicarbonate. Aripiprazole was dissolved in a minimum amount of heated acetic acid, diluted in warm 5.5% glucose and adjusted to pH 4-5. All drugs were administered intraperitoneally (i.p.) or subcutaneously (s.c.) in volumes of 5 ml/kg. Control treatments consisted of the appropriate vehicle administered in accordance with the drug treatment at issue.
# as §1, §2
# habituated rats = assay: Motor activity of habituated rats in activity boxes; format: in vivo, Sprague-Dawley rats; settings: s.c.
# Protocol: as §3, §4
# Rats were housed in a normal daylight cycle and testing was performed during daytime. Animals were introduced into sound attenuated, illuminated activity boxes (1/w/h: 40×40×20 cm) and were allowed to habituate in the new environment for 65 minutes. During the following 5 minutes test drugs were injected s.c., after which the rats were returned to the boxes for another 60 minutes. Five by five rows of photocell beams at floor level allowed a computer based-system to register horizontal activity. Motor activity is presented as accumulated number of unrepeated beam breaks, i.e. several consecutive breakings of one beam is counted as one beam break. The software was set to register behaviour from the rat's first introduction into the arena until it was finally removed from the box, i.e. for 130 minutes. Activity is presented separately for t=0-30 min and t=30-60 min after injection.
# as §2
# rats [2] = settings: small activity boxes; pre-treatment 30 minutes; dark hours, light turned off; preliminary
# [3] = tested on: amphetamine-induced hyperactivity in rats; settings: Natesan et al., 2006; cited from earlier work
# [4] = Hartter et al., 2003; cited from earlier work
# human D2l receptors = target: T1, human D2l receptors (Homo sapiens, UniProt P14416); assay: Incorporation of GTPgammaS^35 in CHO-hD2l membranes; format: biochemical
# T1 construct: expressed in transfected cells; host or cells: CHO (CHO-hD2l cells), membrane preparation
# Protocol: Membranes were stored at −80° C. at a concentration of 1 mg protein/ml buffer.
# Dopamine-stimulated GTPgammaS^35 incorporation was determined using the following procedure: in a buffer containing 20 mM HEPES, 5 mM Mg Cl2, 100 mM NaCl, at pH 7.5, membranes ([…]) were incubated with vehicle, drugs and 3 μM GDP for 30 min at 30° C., total volume was 1.1 ml. […] The reaction was stopped by filtering the samples with a Brandel harvester on Whatmann GF/B filters. Filters were placed in liquid scintillation vials containing 10 ml of BCS scintillation fluid and counted the next day. All samples were run in triplicate.
# [5] = clinical dosages of at least 25 mg per day; cited from earlier work
# dopamine D2 receptors = dopamine D2 receptors (Homo sapiens, UniProt P14416); settings: in-vitro binding, Sonesson et al. 1994; cited from earlier work
# [6] = tested on: mice pretreated with reserpine and alpha-methylpara-tyrosine; assay: Mouse model of Parkinsonism (reserpine and alpha-methyl-para-tyrosine pretreated mice); format: in vivo, NMRI mice
# Protocol: Animals were pretreated with reserpine (10 mg/kg i.p.) and alpha-methylpara-tyrosine (500 mg/kg i.p.) 18 and 4 hours before the experiment, respectively, and were then treated with various i.p. doses of OSU6162, expressed in […], or saline (“ctr”). Immediately following injection the animals were placed in individual cages and video-taped from above for 60 min. Shown are the distances moved, means and S.E.M. N=5-6 per treatment group. Statistics: *P<0.05, **p<0.01, as compared with the controls.
# In these experiments we used male NMRI mice weighting 25-30 g at the time of testing. The mice were pretreated with reserpine, 10 mg/kg i.p., 18 hours, and alpha-methyl-para-tyrosine HCl, 500 mg/kg i.p. 2 hours, respectively, before the experiment.
# The actual experiment was started by injecting either OSU6162 in doses of 5, 25 or 125 μmol/kg i.p.or placebo (a physiological saline solution). Each dosage group consisted of 5-6 mice. Immediately after injection the mice were placed in individual cages and video taped from above for 60 min. Various aspects of motility were analysed from the video tapes.
# Statistical calculations were performed with the non parametric Mann-Whitney U-test, and asterisks in the graph indicate significant differences compared to control group (*p<0.05; **p<0.01).
# rats [7] = assay: Preliminary experiment: rats in large illuminated arenas during daytime; format: in vivo
# Excerpt: As to the issues of illumination and daylight cycle, behavioural inhibition has been observed in ultraviolet (Rung et al., 2005b) or infrared light (current study) during the dark hours of the rats' diurnal rhythm. Based on how the light is perceived by humans, we presume that the ultraviolet and infrared light used in these studies is perceived by the rats as dim light and darkness respectively.
# [8] = apomorphine 0.16 μmol/kg s.c., test drug i.p. 30 min prior, dose range per drug
# [9] = i.p., 30 min prior to 30 min tracking
# [10] = whole 60 min registration / either time interval
# T1 sequence (P14416 whole entry): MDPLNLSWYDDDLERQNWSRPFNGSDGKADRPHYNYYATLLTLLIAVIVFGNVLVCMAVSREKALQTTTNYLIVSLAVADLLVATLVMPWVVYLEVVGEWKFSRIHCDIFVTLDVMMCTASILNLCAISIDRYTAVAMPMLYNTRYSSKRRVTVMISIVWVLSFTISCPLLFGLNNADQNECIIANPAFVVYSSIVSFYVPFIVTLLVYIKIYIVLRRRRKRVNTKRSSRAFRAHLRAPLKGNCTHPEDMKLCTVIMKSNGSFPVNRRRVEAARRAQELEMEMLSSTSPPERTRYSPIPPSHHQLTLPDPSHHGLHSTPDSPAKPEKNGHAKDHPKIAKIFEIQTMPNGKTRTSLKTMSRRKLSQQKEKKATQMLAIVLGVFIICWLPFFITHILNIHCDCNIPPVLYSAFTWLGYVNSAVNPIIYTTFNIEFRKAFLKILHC
# Sequence of dopamine D2 receptors (P14416 whole entry): as above
smiles,measurement,setting,value
"CCCN1CCC(c2cccc(S(C)(=O)=O)c2)CC1 [ACR16, 4-(3-methanesulfonylphenyl)-1-propyl-piperidine]",effect on apomorphine-induced hypomotility,"[1]; apomorphine 0.08 μmol/kg s.c., ACR16 i.p., higher dose",tended to inhibit activity further
same,effect on apomorphine-induced hypomotility,[1]; [8],did not have any noticeable effect on apomorphine-induced hypoactivity
same,motor activity (velocity),active rats; [9],dose-dependent and statistically significant reduction of motor activity
same,motor activity (accumulated unrepeated beam breaks),habituated rats; t=0-30 min after injection,this effect increased dose-dependently
same,motor activity (accumulated unrepeated beam breaks),habituated rats; t=30-60 min after injection,the effect appeared to peak at the dose 50 μmol/kg
same,motor activity (accumulated unrepeated beam breaks),habituated rats; [10],"caused an activation, although smaller than that of OSU6162"
same,motor activity,rats [2],marked reduction in motor activity
same,effect on amphetamine-induced hyperactivity,[3],reverse amphetamine-induced hyperactivity
"O=C1CCc2ccc(OCCCCN3CCN(c4cccc(Cl)c4Cl)CC3)cc2N1 [aripiprazole, reference compound]",motor activity (velocity),active rats; [9],"marked and dose-dependent inhibition on motor activity, that was statistically significant at all doses tested"
same,motor activity (accumulated unrepeated beam breaks),habituated rats; t=0-30 min after injection,"dose-dependent inhibition during the first 30 minutes after injection, which was statistically significant at the highest dose"
same,motor activity (accumulated unrepeated beam breaks),habituated rats; t=30-60 min after injection,did not affect locomotor activity
"CCN1CCCC1CNC(=O)c1cc(S(=O)(=O)CC)c(N)cc1OC (stereo not drawn) [amisulpride, reference compound]",effect on apomorphine-induced hypomotility,"[1]; amisulpride 270 μmol/kg, s.c., data not shown",a mere tendency towards reversal of apomorphine-induced hypoactivity
same,effect on apomorphine-induced hypomotility,[1]; [8],effectively counteracted apomorphine-induced hypoactivity
same,motor activity (velocity),active rats; [9],inhibited motor activity slightly at the highest dose tested
same,motor activity (accumulated unrepeated beam breaks),habituated rats; [10],Neither haloperidol (0.1-0.8 μmol/kg) nor amisulpride (33-300 μmol/kg) had any significant effects on motor activity
same,penetration of biological membranes,[4],poor penetration of biological membranes
"O=C(CCCN1CCC(O)(c2ccc(Cl)cc2)CC1)c1ccc(F)cc1 [haloperidol, reference compound]",effect on apomorphine-induced hypomotility,[1]; [8],no statistically significant effects on motor activity
same,motor activity relative to control,"active rats; haloperidol 0.8 μmol/kg, s.c.",approximately 7 % of control level
same,motor activity (velocity),active rats; [9],statistically significant inhibition at the highest dose
same,motor activity (accumulated unrepeated beam breaks),habituated rats; [10],Neither haloperidol (0.1-0.8 μmol/kg) nor amisulpride (33-300 μmol/kg) had any significant effects on motor activity
"CN1CCc2cccc3c2[C@H]1Cc1ccc(O)c(O)c1-3 [apomorphine, R-(−)-Apomorphine hydrochloride hemihydrate]",locomotor activity (velocity),"active rats; apomorphine 0.04-0.16 μmol/kg s.c., 5 min prior to registration",dose dependent inhibiting effect on locomotor activity
same,motor activity (velocity),active rats; apomorphine higher dose-interval 0.16-64 μmol/kg s.c.,motor activity began to return towards a level similar to that observed in controls
same,dose of maximal inhibition of motor activity,active rats; apomorphine s.c.,0.16 µmol/kg
"CCCN1CCC[C@@H](c2cccc(S(C)(=O)=O)c2)C1 [(−)-OSU6162, S-(−)-3-[3-methylsulfonylphenyl]-1-propylpiperidine]",increase of the incorporation of GTPgammaS^35,"human D2l receptors; absence of dopamine, 100 to 10,000 nM (−)OSU6162",8 to 11%
same,effect on GTPgammaS^35 incorporation,"human D2l receptors; dopamine 10 to 100 nM, (−)-OSU6162 10 to 100 nM",caused an increased incorporation of GTPgammaS^35
same,effect on GTPgammaS^35 incorporation,"human D2l receptors; dopamine 10 to 100 nM, (−)-OSU6162 1,000 to 10,000 nM",this increase was no longer seen
same,effect on GTPgammaS^35 incorporation,"human D2l receptors; dopamine 1,000 and 10,000 nM, varied (−)-OSU6162 levels","similar, though flatter activity curves"
same,effect on apomorphine-induced hypomotility,"[1]; apomorphine 0.16 μmol/kg s.c., OSU6162 120 μmol/kg i.p.",seemed to cause a marked drop in motor activity
same,effect on apomorphine-induced hypomotility,[1]; [8],modest but apparently dose dependent reversal of apomorphineinduced hypomotility up to a dose of 60 μmol/kg
same,cardiac adverse effects,[5],"QTc values higher than normal, cardiac arrhythmia, or heart rhythm abnormalities, such as torsades de pointes"
same,Ki,dopamine D2 receptors,in the micromolar region
same,"motility (distance moved, 60 min)",[6]; OSU6162 5 μmol/kg i.p.,showed only minimal signs of motility
same,"motility (distance moved, 60 min)","[6]; OSU6162 two higher doses (25, 125 μmol/kg i.p.)","significant, dose dependent increase in motility"
same,motor activity (velocity),active rats; [9],dose-dependent and statistically significant reduction of motor activity
same,dose at which a significant effect on motor activity shows up,habituated rats; later experiment with lower doses 6.25 and 12.5 μmol/kg,12.5 µmol/kg
same,motor activity (accumulated unrepeated beam breaks),habituated rats; t=0-30 min after injection,marked locomotor activation
same,motor activity (accumulated unrepeated beam breaks),habituated rats; t=30-60 min after injection,the three highest doses significantly stimulated locomotion
same,effect on amphetamine-induced hyperactivity,[3],reverse amphetamine-induced hyperactivity
same,behavioural response,"rats [7]; daytime, large illuminated arenas, not habituated",behavioural inhibition similar to that observed in darkness
same,behavioural response,rats [7]; rats habituated to large illuminated arenas,did not respond with any change in activity
"CCCN1CCC[C@@H](c2cccc(O)c2)C1 [(−)-3-PPP, S-(−)-3-[3-hydroxyphenyl]-1-propylpiperidine, reference compound]",motor activity (velocity),"active rats; s.c., 30 min prior to 30 min tracking, OSU6162 50-200 μmol, (−)-3-PPP 2.5 and 10 μmol/kg","marked and dose-dependent inhibition on motor activity, that was statistically significant at all doses tested"
same,motor activity (accumulated unrepeated beam breaks),habituated rats; [10],did not have any statistically significant effects on motor activity in either time interval

# Reference: patent US20100197712A1, “USE OF DOPAMINE STABILIZERS” (priority 2007, published 2010)
